ChEMBL document CHEMBL4507291 (2021)

Legend:
[1] = target: Serine/threonine-protein kinase 32B (Homo sapiens) (UniProt Q9NY57)
[2] = target: T1, Aurora kinase A (Homo sapiens) (UniProt O14965)
T1 sequence (whole entry): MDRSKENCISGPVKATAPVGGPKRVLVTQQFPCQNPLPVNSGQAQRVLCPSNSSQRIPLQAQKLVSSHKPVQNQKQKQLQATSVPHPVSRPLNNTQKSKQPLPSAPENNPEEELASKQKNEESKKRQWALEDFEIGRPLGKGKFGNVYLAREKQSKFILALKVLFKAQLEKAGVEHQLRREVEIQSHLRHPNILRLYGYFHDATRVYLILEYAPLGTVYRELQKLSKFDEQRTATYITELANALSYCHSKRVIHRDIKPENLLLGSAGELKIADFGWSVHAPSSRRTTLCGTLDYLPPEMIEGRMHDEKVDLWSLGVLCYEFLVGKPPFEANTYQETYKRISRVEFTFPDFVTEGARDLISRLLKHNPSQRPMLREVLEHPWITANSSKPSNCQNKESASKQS

[3] = test system: Epidermal growth factor receptor (Homo sapiens), P00533 [L861Q]
[4] = target: T2, Tyrosine-protein kinase JAK3 (Homo sapiens) (UniProt P52333)
T2 sequence (whole entry): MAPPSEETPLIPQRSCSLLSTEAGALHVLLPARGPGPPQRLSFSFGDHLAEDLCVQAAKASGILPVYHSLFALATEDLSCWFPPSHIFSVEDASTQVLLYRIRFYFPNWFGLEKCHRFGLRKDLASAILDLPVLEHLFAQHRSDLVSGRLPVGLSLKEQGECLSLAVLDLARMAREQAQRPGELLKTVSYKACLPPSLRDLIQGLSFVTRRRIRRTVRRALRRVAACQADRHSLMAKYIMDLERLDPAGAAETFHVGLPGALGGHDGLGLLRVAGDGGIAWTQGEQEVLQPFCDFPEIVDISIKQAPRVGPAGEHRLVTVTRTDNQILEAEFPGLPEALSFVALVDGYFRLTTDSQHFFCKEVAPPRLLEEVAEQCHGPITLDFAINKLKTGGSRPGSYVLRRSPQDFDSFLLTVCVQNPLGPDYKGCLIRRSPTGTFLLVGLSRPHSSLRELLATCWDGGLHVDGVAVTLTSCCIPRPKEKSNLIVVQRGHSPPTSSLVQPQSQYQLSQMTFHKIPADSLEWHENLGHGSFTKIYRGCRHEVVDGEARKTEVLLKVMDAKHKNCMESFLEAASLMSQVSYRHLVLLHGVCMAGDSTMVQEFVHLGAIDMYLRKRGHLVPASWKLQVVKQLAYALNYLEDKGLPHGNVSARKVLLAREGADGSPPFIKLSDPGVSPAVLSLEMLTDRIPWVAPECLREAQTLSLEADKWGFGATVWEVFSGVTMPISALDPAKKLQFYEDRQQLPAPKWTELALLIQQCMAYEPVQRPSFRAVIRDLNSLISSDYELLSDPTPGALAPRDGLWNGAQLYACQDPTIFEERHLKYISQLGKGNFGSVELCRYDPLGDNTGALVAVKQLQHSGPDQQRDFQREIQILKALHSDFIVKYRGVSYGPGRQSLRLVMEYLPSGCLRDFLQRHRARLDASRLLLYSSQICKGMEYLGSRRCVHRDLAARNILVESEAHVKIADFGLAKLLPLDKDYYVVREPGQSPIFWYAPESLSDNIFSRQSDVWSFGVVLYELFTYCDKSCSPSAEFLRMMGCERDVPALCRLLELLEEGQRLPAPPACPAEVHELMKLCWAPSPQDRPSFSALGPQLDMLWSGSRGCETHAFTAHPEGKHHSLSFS

[5] = target: Serine/threonine-protein kinase MRCK gamma (Homo sapiens) (UniProt Q6DT37)
[6] = target: Tyrosine-protein kinase receptor Tie-1 (Homo sapiens) (UniProt P35590)
[7] = target: SNF-related serine/threonine-protein kinase (Homo sapiens) (UniProt Q9NRH2)
[8] = target: Phosphatidylinositol 4,5-bisphosphate 3-kinase catalytic subunit beta isoform (Homo sapiens) (UniProt P42338)
[9] = target: Dual specificity mitogen-activated protein kinase kinase 5 (Homo sapiens) (UniProt Q13163)
[10] = target: Tyrosine-protein kinase JAK1 (Homo sapiens) (UniProt P23458)
[11] = target: Kappa-type opioid receptor (Homo sapiens) (UniProt P41145); details: Compound concentration 10.0 uM
[12] = target: T3, Alpha-1A adrenergic receptor (Homo sapiens) (UniProt P35348); details: Compound concentration 10.0 uM
T3 sequence (whole entry): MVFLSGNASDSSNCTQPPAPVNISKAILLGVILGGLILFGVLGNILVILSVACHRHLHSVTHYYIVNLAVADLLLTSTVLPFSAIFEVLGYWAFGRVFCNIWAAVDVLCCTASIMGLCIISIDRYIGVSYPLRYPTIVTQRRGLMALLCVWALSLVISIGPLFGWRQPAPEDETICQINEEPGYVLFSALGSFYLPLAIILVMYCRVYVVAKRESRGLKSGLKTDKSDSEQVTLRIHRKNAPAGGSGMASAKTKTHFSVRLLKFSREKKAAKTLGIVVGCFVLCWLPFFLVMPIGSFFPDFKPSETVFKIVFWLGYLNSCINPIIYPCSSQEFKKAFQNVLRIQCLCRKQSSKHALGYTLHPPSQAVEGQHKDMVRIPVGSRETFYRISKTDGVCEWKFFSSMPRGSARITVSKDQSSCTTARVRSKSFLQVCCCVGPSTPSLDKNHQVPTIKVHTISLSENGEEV

[13] = test system: Mast/stem cell growth factor receptor Kit (Homo sapiens), P10721 [V559D]
[14] = target: Non-receptor tyrosine-protein kinase TYK2 (Homo sapiens) (UniProt P29597)
[15] = target: Mitogen-activated protein kinase kinase kinase 6 (Homo sapiens) (UniProt O95382)
[16] = target: Myosin light chain kinase 2, skeletal/cardiac muscle (Homo sapiens) (UniProt Q9H1R3)
[17] = target: Maternal embryonic leucine zipper kinase (Homo sapiens) (UniProt Q14680)
[18] = Compound concentration 100.0 nM
[19] = Compound concentration 1000.0 nM

Chain of Mast/stem cell growth factor receptor Kit (Homo sapiens), P10721 [V559D] (P10721 whole entry V559D): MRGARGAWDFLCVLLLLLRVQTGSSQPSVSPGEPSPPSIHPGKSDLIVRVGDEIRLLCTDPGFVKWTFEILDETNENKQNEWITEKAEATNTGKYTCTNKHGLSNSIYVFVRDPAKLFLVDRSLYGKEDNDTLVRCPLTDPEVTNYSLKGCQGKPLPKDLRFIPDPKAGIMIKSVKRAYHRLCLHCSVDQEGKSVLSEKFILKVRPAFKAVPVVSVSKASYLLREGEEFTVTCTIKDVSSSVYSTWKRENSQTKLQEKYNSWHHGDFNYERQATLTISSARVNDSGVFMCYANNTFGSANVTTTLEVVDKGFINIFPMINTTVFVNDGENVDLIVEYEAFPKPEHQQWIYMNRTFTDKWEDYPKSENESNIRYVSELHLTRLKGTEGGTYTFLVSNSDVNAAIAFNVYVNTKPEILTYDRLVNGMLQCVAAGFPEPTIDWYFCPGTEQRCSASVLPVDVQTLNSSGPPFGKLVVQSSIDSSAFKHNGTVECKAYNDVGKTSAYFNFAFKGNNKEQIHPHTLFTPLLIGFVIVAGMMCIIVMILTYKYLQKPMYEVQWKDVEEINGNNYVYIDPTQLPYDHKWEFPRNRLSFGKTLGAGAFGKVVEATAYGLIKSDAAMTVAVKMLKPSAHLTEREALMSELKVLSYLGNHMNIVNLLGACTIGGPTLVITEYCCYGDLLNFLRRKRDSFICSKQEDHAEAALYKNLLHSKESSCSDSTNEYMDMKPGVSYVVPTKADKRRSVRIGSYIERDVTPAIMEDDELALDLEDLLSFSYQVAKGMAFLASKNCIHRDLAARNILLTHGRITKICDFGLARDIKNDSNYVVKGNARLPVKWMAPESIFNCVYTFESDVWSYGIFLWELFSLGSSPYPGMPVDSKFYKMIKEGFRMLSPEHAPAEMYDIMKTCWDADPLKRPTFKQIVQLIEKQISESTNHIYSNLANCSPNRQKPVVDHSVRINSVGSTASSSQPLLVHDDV
Chain of Mitogen-activated protein kinase kinase kinase 6 (Homo sapiens) (O95382 whole entry): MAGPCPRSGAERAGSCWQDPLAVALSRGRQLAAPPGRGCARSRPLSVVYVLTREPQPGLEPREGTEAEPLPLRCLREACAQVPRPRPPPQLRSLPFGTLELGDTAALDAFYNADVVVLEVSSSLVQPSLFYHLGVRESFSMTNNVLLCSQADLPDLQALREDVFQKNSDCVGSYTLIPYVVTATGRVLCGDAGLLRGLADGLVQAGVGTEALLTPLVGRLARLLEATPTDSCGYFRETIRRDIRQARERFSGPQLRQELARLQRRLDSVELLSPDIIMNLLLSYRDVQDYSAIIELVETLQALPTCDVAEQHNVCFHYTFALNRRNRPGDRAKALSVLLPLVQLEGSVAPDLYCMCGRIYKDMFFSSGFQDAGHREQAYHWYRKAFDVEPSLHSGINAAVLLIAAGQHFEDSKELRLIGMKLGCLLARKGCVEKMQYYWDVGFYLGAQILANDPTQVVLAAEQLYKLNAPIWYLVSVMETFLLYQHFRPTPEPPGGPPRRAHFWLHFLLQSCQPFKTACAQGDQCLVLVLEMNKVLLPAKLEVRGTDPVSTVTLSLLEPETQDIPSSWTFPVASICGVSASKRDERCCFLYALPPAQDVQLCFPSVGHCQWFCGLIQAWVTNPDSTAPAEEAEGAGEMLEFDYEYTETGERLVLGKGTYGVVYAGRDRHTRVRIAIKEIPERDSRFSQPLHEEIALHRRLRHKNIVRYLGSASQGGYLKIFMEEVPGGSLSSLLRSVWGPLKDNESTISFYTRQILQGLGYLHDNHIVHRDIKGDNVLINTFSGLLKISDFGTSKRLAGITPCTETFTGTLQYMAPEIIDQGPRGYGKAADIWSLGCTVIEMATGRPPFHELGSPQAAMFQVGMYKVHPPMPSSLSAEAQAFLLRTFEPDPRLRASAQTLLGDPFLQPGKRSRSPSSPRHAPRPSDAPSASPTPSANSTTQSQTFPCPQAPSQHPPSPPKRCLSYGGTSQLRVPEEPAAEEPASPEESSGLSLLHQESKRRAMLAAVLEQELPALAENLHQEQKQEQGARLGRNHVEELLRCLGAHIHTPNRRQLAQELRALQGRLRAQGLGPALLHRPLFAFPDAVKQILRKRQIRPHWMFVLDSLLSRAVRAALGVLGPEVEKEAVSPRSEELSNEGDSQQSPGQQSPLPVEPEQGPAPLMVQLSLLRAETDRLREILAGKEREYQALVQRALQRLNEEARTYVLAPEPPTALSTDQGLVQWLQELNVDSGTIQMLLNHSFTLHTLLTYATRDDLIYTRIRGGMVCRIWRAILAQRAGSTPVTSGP
Chain of Phosphatidylinositol 4,5-bisphosphate 3-kinase catalytic subunit beta isoform (Homo sapiens) (P42338 whole entry, looked up, canonical isoform): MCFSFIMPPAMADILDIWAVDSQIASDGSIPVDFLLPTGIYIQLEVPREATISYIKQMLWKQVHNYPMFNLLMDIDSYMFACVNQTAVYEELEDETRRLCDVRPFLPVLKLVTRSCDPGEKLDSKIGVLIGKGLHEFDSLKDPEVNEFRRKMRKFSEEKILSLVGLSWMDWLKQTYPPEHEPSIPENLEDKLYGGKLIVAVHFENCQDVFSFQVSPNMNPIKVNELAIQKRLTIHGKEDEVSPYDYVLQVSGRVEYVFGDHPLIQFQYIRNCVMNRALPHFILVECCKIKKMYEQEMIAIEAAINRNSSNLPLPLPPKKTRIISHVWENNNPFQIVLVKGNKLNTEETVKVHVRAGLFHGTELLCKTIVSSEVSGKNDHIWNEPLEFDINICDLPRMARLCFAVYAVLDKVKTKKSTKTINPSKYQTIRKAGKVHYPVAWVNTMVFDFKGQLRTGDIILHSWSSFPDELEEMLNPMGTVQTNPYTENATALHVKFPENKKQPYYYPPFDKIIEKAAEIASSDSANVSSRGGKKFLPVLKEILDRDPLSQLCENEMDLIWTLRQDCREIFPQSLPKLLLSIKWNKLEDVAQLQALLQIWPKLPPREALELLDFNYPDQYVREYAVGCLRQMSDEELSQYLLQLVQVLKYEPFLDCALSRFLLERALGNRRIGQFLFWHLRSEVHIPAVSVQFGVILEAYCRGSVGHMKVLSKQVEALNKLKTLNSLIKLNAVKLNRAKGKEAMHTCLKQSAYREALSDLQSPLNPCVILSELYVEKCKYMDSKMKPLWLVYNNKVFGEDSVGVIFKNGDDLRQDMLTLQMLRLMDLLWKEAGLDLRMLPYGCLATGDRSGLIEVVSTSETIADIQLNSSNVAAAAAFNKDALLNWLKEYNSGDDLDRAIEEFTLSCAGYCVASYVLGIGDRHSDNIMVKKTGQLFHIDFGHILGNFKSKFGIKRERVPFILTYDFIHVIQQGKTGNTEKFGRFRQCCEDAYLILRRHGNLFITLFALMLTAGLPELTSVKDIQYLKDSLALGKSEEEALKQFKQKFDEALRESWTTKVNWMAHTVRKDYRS
Chain of SNF-related serine/threonine-protein kinase (Homo sapiens) (Q9NRH2 whole entry, canonical isoform): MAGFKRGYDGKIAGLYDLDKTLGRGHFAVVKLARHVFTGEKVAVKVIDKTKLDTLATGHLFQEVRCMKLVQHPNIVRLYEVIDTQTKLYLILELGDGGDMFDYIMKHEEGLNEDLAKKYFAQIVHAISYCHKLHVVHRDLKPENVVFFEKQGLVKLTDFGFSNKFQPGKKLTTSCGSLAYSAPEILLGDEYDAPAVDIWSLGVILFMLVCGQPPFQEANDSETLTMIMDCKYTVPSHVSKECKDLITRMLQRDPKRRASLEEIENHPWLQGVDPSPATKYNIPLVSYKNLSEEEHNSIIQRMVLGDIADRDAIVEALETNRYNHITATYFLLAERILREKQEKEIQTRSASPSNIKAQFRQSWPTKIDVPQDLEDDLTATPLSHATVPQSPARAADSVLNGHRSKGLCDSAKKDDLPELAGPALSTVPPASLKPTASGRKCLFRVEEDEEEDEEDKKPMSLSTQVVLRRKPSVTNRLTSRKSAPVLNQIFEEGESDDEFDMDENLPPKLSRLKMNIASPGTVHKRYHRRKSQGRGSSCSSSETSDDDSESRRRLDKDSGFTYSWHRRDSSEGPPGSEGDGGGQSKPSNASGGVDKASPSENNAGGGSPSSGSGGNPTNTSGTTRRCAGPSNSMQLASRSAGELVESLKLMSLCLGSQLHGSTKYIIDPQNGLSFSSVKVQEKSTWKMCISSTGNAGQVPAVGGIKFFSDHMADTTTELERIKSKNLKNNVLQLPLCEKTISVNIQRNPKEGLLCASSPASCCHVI
Chain of Serine/threonine-protein kinase 32B (Homo sapiens) (Q9NY57 whole entry): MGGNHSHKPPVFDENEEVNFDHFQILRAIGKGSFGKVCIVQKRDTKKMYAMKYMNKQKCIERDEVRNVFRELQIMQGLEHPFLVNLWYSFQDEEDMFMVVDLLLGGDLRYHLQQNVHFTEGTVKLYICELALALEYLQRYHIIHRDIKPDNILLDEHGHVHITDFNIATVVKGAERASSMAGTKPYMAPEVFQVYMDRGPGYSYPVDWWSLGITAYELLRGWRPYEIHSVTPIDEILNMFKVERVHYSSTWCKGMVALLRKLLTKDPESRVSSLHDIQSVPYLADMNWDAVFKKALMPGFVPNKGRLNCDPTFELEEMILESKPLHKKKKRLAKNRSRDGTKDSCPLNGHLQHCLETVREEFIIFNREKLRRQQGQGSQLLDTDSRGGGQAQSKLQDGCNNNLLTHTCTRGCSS
Chain of Dual specificity mitogen-activated protein kinase kinase 5 (Homo sapiens) (Q13163 whole entry): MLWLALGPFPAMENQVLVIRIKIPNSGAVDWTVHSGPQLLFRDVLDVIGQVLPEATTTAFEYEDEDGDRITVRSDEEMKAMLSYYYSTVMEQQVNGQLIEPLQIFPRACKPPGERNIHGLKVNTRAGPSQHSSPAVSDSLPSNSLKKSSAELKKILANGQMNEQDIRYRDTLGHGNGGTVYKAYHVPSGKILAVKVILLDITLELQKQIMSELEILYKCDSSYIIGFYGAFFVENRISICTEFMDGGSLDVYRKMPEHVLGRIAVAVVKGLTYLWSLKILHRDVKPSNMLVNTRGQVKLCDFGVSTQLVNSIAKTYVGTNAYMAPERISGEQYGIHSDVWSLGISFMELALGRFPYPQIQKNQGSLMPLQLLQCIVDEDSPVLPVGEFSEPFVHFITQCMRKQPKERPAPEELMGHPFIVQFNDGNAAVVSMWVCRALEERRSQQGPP

C[C@@H]1CN(c2cc(-c3n[nH]c4ccc(OC5(C)CC5)cc34)ncn2)C[C@H](C)O1 [MLi-2]
residual activity [1, 18]: 92%
residual activity [2, 18]: 94%
residual activity [3, 18]: 50%
residual activity [4, 18]: 0%
residual activity [5, 18]: 89%
residual activity [6, 18]: 67%
residual activity [7, 18]: 94%
residual activity [8, 18]: 59%
residual activity [9, 18]: 90%
residual activity [10, 18]: 79%
inhibition [11]: -0.6%
inhibition [12]: 3.49%
residual activity [13, 18]: 100%
residual activity [14, 18]: 76%
residual activity [15, 18]: 59%
residual activity [16, 18]: 91%
residual activity [17, 18]: 88%

C[C@@H]1CN(c2cc(-c3nn(C)c4ccc(OC5(C)CC5)cc34)ncn2)C[C@H](C)O1 [MLi-2-NC]
residual activity [1, 19]: 100%
residual activity [2, 19]: 100%
residual activity [3, 19]: 83%
residual activity [4, 19]: 12%
residual activity [5, 19]: 100%
residual activity [6, 19]: 92%
residual activity [7, 19]: 92%
residual activity [8, 19]: 100%
residual activity [9, 19]: 93%
residual activity [10, 19]: 84%
inhibition [11]: 13.1%
inhibition [12]: -3.6%
residual activity [13, 19]: 100%
residual activity [14, 19]: 82%
residual activity [15, 19]: 76%
residual activity [16, 19]: 87%
residual activity [17, 19]: 55%
